{
  "source": "patent US20050191294A1",
  "about": "“Compositions and methods of use of targeting peptides for diagnosis and therapy” (Board of Regents, The University of Texas System, priority 2003, published 2005)",
  "key": {"recombinant GRP78": {"molecular_target": "T1, recombinant GRP78 (Mesocricetus auratus, UniProt P07823)", "T1 construct": "purchased Stressgen, Victoria, Canada", "T1 sequence (P07823 19-654)": "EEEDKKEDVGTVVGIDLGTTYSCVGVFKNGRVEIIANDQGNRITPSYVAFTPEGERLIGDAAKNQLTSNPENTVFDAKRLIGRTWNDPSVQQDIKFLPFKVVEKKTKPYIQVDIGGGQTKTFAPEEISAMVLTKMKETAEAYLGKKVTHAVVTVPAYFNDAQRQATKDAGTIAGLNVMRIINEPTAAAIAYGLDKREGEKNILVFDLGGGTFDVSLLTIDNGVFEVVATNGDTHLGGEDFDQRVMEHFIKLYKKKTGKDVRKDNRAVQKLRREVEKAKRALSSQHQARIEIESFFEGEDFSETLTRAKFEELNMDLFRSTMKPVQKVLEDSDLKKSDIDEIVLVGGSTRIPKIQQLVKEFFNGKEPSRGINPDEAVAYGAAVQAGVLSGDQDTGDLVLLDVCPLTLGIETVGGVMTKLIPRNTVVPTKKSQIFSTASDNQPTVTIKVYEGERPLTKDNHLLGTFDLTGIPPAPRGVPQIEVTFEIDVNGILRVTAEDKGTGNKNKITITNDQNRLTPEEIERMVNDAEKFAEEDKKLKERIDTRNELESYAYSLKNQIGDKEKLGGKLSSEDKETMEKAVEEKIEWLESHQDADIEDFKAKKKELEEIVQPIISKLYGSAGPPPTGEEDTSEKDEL", "test": "In vitro phage binding assay on immobilized GRP78", "details": "increasing concentrations of synthetic peptide against the corresponding phage", "method": "In vitro phage binding assays. GRP78, HSP70, HSP90 (all from Stressgen, Victoria, Canada) and bovine serum albumin (BSA) were immobilized on microtiter wells of 96-well plates overnight at 4° C. Wells were washed twice with phosphate-buffered saline (PBS), blocked with PBS containing 3% BSA for 1 hour at room temperature (RT), and incubated with 10^9 transducing units (TU) of WIFPWIQL (SEQ ID NO:6)-phage, WDLAWMFRLPVG (SEQ ID NO:7)-phage, or insertless control phage (Fd-tet) in 50 μl of PBS containing 1.5% BSA. After 2 hours at RT, wells were washed with PBS, and bound phage were recovered by infection with host bacteria (log-phase Escherichia coli K91 kan; OD600≈2). Aliquots of the bacterial culture were plated onto Luria-Bertani broth (LB) agar plates supplemented with 40 μg/ml tetracycline and 100 μg/ml kanamycin. Plates were incubated overnight at 37° C., and phage TU were counted in triplicate plates. Increasing concentrations of synthetic peptides WIFPWIQL (SEQ ID NO:6), WDLAWMFRLPVG (SEQ ID NO:7)-, and an unrelated control peptide CARAC (SEQ ID NO:9) (Genemed Synthesis Inc., San Francisco, Calif.) were used to evaluate competitive inhibition of phage binding. All peptides were solubilized in a standard stock solution of 10% dimethylsulfoxide (DMSO) and diluted to working concentrations for the assays."}, "LNCaP cells [1]": {"system": "LNCaP cells", "test": "Cell apoptosis assay (Annexin-V staining), LnCap", "format": "cell-based, human", "details": "LnCap (data not shown)"}, "DU145 cells": {"system": "DU145 cells", "test": "Cell apoptosis assay (Annexin-V staining), DU145", "format": "cell-based, human", "details": "DU145, 30 μM, 6 hours", "from_the_text": "Cell apoptosis assays. Peptides were synthesized to our specifications at greater than 95% purity (Genemed Synthesis Inc., San Francisco, Calif.). Apoptosis was induced with a pro-apoptotic motif D(KLAKLAK)2 that disrupts mitochondrial membranes and is inert to eukaryotic plasma membranes. An equimolar concentration of the targeted [(WIFPWIQL (SEQ ID NO:6)-GG-D(KLAKLAK)2 (SEQ ID NO:11) and WDLAWMFRLPVG (SEQ ID NO:7)-GG-D(KLAKLAK)2) (SEQ ID NO:11)] and untargeted [(WIFPWIQL (SEQ ID NO:6)-+(KLAKLAK)2 (SEQ ID NO:11) and WDLAWMFRLPVG (SEQ ID NO:7)-+(KLAKLAK)2 (SEQ ID NO:11)] peptides was used. Human prostate cancer-derived DU 145 cells were grown in tissue chamber slides (Lab-Tek II Chamber Slide System; Nalge Nunc International Corp., Naperville, Ill.). Cells were washed with PBS and incubated with 30 μM (in 300 μl DMEM supplemented with 10% FBS, penicillin and streptomycin) of the targeted and untargeted peptides for 6 hours. Pure DMEM was used as an internal negative control. Apoptosis was detected with the Annexin-V-FLUOS Staining kit (Roche, Manheim, Germany) according to the manufacturer's instructions."}, "[2]": {"system": "DU145-derived human prostate carcinoma xenografts", "test": "Targeted treatment of nude mice bearing DU145 human prostate carcinoma xenografts", "format": "in vivo", "details": "300 μg/week per mouse i.v.; controls vehicle and equimolar unconjugated mixtures; P<0.001", "method": "Establishment of mice bearing human tumor xenografts. Male athymic nu/nu (nude) mice were obtained commercially from Harlan-Sprague-Dawley (Indianapolis, Ind.). Human prostate cancer xenografts were established by injection of DU 145 cells (10^6 cells in a 200 μl DMEM) in the subcutaneous tissue of 2 months old male nude mice.\nTargeted treatment ofnude mice bearing human prostate carcinoma xenografts. DU145-derived tumor xenografts were established in male nude mice as described above. GRP78-targeting peptides used for therapy were coupled to the pro-apoptotic motif D(KLAKLAK)2 ([…]) and controls were treated with an equimolar concentration of the GRP78-targeting peptides and the pro-apoptotic motif. Mice were divided into groups of seven animals and treatment started when mean tumor volume for each group was around 200 mm^3. Two-dimensional measurements of tumors were made by caliper on anesthetized mice, and were used to calculate tumor volume. […]\nStatistical analysis. Experiments are expressed as mean±standard errors of the means (SEM) of triplicate plates and analyzed by using the two-tailed Student's t test (t test). Tumor volumes were calculated individually for each mouse throughout the study and results are also expressed as mean±SEM for all the groups."}, "white fat vasculature": {"system": "white fat vasculature", "test": "In vivo homing of fitc-peptides in wild-type mice", "parameters": "species or system mouse"}, "LNCaP cells [3]": {"system": "LNCaP cells", "test": "Induction of apoptosis, WST-1 cell viability assay, LNCaP", "format": "cell-based, human", "details": "10-100 μM, 24-72 hours", "method": "(§1) Induction and Quantification of Apoptosis with […] (SEQ ID NO:1)-GG-D(KLAKLAK)2 (SEQ ID NO:11) Synthetic Peptide. Soluble […] (SEQ ID NO:1)-GG-D(KLAKLAK)2 (SEQ ID NO:11), […] […] The unrelated control peptide […] (SEQ ID NO:5)-GG-D(KLAKLAK)2 (SEQ ID NO:11) was synthesized by Genemed Synthesis, Inc. (South San Francisco, Calif.). LNCaP, MDA-PCa-2b cells (each at 3×10^4 per well), and EF43fgf-4 cells (7) at 2×10^4 per well were seeded in triplicates and incubated in 96-well plates (Becton Dickinson, Franklin Lakes, N.J.) for 24-72 hours at 37° C., with serially increasing concentrations (10-100 μM) of […] (SEQ ID NO:1))-GG-D(KLAKLAK)2 (SEQ ID NO:11) peptide, […] (SEQ ID NO:1)-peptide alone, D(KLAKLAK)2 (SEQ ID NO:11) peptide alone, or an equimolar mixture of the unconjugated peptides […] […] LNCaP cells were also exposed in parallel to increasing concentrations (20-100 μM) of […] (SEQ ID NO:1)-GG-D(KLAKLAK)2 (SEQ ID NO:11) and unrelated control peptides […] (SEQ ID NO:4)-GG-D(KLAKLAK)2 (SEQ ID NO:11) or […] (SEQ ID NO:5)-GG-D(KLAKLAK)2 (SEQ ID NO:11), under the same conditions. […] (SEQ ID NO:1)-GG-D(LAKLAK)2 (SEQ ID NO:11) peptide for 3 hours. Response was evaluated by a cell viability assay (WST-1; Roche, Mannheim, Germany)."}, "MDA-PCa-2b cells": {"system": "MDA-PCa-2b cells", "test": "Induction of apoptosis, WST-1 cell viability assay, MDA-PCa-2b", "format": "cell-based, human", "details": "10-100 μM, 24-72 hours", "method": "as §1"}, "[4]": {"system": "diet-induced obese C57BL/6 mice", "test": "Fat resorption and metabolic analysis in diet-induced obese mice", "details": "4 weeks of treatment", "text": "Apoptosis was detected by using standard TUNEL immunohistochemistry.\nFat resorption and metabolic analysis. High-calorie diet for obesity induction (TD97366: 25.4% fat, 21.79% protein, 38.41% carbohydrate) was purchased from Harlan Teklad. […] Stocks of [sequence] (SEQ ID NO:4)-GG-D(KLAKLAK)2 (SEQ ID NO:11), [sequence] (SEQ ID NO:10)-GG-D(KLAKLAK)2 (SEQ ID NO:11), D(KLAKLAK)2, CARAC (SEQ ID NO:9)-GG-D(KLAKLAK)2 (SEQ ID NO:11), and [sequence] (SEQ ID NO:4) chemically synthesized, cyclized, and HPLC-purified to 99% purity (AnaSpec) were prepared by dissolving lyophilized peptides in DMSO to a concentration of 65 mM. […] Mouse weight, body temperature, and food and water consumption were monitored weekly. Tissue lipids were measured as described. […] Oxygen consumption and heat generation of fasting mice were measured for 24 h by indirect calorimetry with OXYMAX (Columbus Instruments, Columbus, Ohio). To quantify spontaneous activity, 8 mice (2 mice per cage) were placed in automated photocell activity cages (AccuScan Instruments, Columbus, Ohio). […] Horizontal locomotor activity was computer-monitored as the number of infrared beam breaks, which were detected for the period of 1 h and recorded every hour for the duration of the test (14 h) by using a Versamax Analyser. […]"}, "[5]": {"system": "wild-type mice obese due to old age", "test": "Treatment of age-related obesity in regular diet-fed wild-type mice", "format": "in vivo, mouse", "method": "Fat resorption and metabolic analysis. […] Tissue lipids were measured as described."}},
  "note": "Where a SMILES comes first, the peptide text is derived from it. Bridges are numbered along the chain shown (N, C = ends). Primed or numbered codes have the meaning given here. Where no end group is shown, it is not given here. [ ]: non-standard residue; d: D form. FITC′ = not defined here",
  "data": [
    {"molecule": "WIFPWIQL (SEQ ID NO:6): synthetic GRP78-binding peptide", "values": [
      {"measurement": "inhibition of phage binding to GRP78 by synthetic peptide", "setting": "recombinant GRP78", "result": "inhibit binding of the corresponding phage in a dose-dependent manner"}
    ]},
    {"molecule": "WIFPWIQL (SEQ ID NO:6)-GG-D(KLAKLAK)2 (SEQ ID NO:11): GRP78-targeted pro-apoptotic peptide (WIFPWIQLGG[dK][dL][dA][dK][dL][dA][dK][dK][dL][dA][dK][dL][dA][dK])", "values": [
      {"measurement": "toxicity / apoptosis (Annexin-V staining)", "setting": "LNCaP cells [1]", "result": "induced apoptosis"},
      {"measurement": "toxicity / apoptosis (Annexin-V staining)", "setting": "DU145 cells", "result": "induced apoptosis"},
      {"measurement": "mean tumor volume relative to the controls", "setting": "[2]", "result": "significantly smaller"}
    ]},
    {"molecule": "CKGGRAKDC (SEQ ID NO:4)-fitc: soluble CKGGRAKDC peptide linked to fluorescein (fitc) at its C-terminus (CKGGRAKDC-{FITC′}; also: cyclized, bridge type not given here)", "values": [
      {"measurement": "presence in isolated ex-vivo blood vessels from white fat tissue", "setting": "white fat vasculature; mouse, in vivo", "result": "presence"},
      {"measurement": "detection in white fat vasculature", "setting": "white fat vasculature; wild-type C57BL/6 mice, i.v., 5 min prior to tissue collection", "result": "specifically localized to and was internalized by blood vessels of subcutaneous and peritoneal white fat"},
      {"measurement": "homing to blood vessels of brown fat, liver and other control organs", "setting": "white fat vasculature; wild-type mice, i.v.", "result": "no CKGGRAKDC (SEQ ID NO:4)-fitc homing was observed"}
    ]},
    {"molecule": "CGRRAGGSC (SEQ ID NO:1): soluble IL-11-mimic peptide alone, used as control", "values": [
      {"measurement": "programmed cell death / toxic effect (WST-1 cell viability)", "setting": "LNCaP cells [3]", "result": "no measurable toxic effects"},
      {"measurement": "programmed cell death / toxic effect (WST-1 cell viability)", "setting": "MDA-PCa-2b cells", "result": "no measurable toxic effects"}
    ]},
    {"molecule": "WDLAWMFRLPVG (SEQ ID NO:7)-GG-D(KLAKLAK)2 (SEQ ID NO:11): GRP78-targeted pro-apoptotic peptide (WDLAWMFRLPVGGG[dK][dL][dA][dK][dL][dA][dK][dK][dL][dA][dK][dL][dA][dK])", "values": [
      {"measurement": "toxicity / apoptosis (Annexin-V staining)", "setting": "LNCaP cells [1]", "result": "induced apoptosis"},
      {"measurement": "toxicity / apoptosis (Annexin-V staining)", "setting": "DU145 cells", "result": "induced apoptosis"},
      {"measurement": "mean tumor volume relative to the controls", "setting": "[2]", "result": "significantly smaller"}
    ]},
    {"molecule": "D(KLAKLAK)2 (SEQ ID NO:11): amphipathic, α-helix-forming anti-microbial pro-apoptotic peptide KLAKLAKKLAKLAK (D-amino acids) [reference compound]", "values": [
      {"measurement": "programmed cell death / toxic effect (WST-1 cell viability)", "setting": "LNCaP cells [3]", "result": "no measurable toxic effects"},
      {"measurement": "programmed cell death / toxic effect (WST-1 cell viability)", "setting": "MDA-PCa-2b cells", "result": "no measurable toxic effects"}
    ]},
    {"molecule": "CC(C)C[C@@H](NC(=O)[C@@H](CCCCN)NC(=O)CNC(=O)CNC(=O)[C@@H]1CSSC[C@H](N)C(=O)N[C@@H](CCCCN)C(=O)NCC(=O)NCC(=O)N[C@@H](CCCNC(=N)N)C(=O)N[C@@H](C)C(=O)N[C@@H](CCCCN)C(=O)N[C@@H](CC(=O)O)C(=O)N1)C(=O)N[C@H](C)C(=O)N[C@H](CCCCN)C(=O)N[C@H](CC(C)C)C(=O)N[C@H](C)C(=O)N[C@H](CCCCN)C(=O)N[C@H](CCCCN)C(=O)N[C@H](CC(C)C)C(=O)N[C@H](C)C(=O)N[C@H](CCCCN)C(=O)N[C@H](CC(C)C)C(=O)N[C@H](C)C(=O)N[C@H](CCCCN)C(=O)O", "note": "(H-CKGGRAKDCGG[dK][dL][dA][dK][dL][dA][dK][dK][dL][dA][dK][dL][dA][dK]-OH; disulfide 1-9)", "values": [
      {"measurement": "apoptosis and appearance of control organs such as liver", "setting": "[4]", "result": "apoptosis was not detected in the control tissues"},
      {"measurement": "toxicity", "setting": "[5]", "result": "without detectable toxicity"}
    ]},
    {"molecule": "WDLAWMFRLPVG (SEQ ID NO:7): synthetic GRP78-binding peptide", "values": [
      {"measurement": "inhibition of phage binding to GRP78 by synthetic peptide", "setting": "recombinant GRP78", "result": "inhibit binding of the corresponding phage in a dose-dependent manner"}
    ]}
  ]
}
